According to article PMC12124432, “Antimicrobial Peptide‐Peptoid Macrocycles from the Polymyxin B2 Chemical Space” (Angewandte Chemie (International Ed. in English), 2025):
Values after ≈ are worked out from the molar mass of the structure shown. Numbered stars: 1 amine (or outer) side, 2 acyl side, 3 side chain; on linkers, the order of the positions; unused ones are H or OH. Bridge positions count the residues as written; N and C are the ends. Square brackets hold non-standard residues; d marks the D form. Peptide text beside a SMILES is read from it. * marks the point of attachment. NGly(CH2(3-pyridyl)) = O=C(O)CNCc1cccnc1; Propanoyl(3-cPent) = O=C(CCC1CCCC1)*; Gly(NCH2CH2Ph) = O=C(O)CNCCc1ccccc1; Cyclopentylacetyl = O=C(CC1CCCC1)*; Gly(N-2-aminoethyl) = NCCNCC(=O)O; X1 = O=C(CN(Cc1ccccn1)[*:1])[*:2]; Pentanoyl(4-Me) = CC(C)CCC(=O)*; Gly(N(CH2)3NH2) = NCCCNCC(=O)O; Gly(N-cHex) = O=C(O)CNC1CCCCC1; Gly(N-CH2CH2OH) = O=C(O)CNCCO; Heptanoyl = CCCCCCC(=O)*; NHexGly = CCCCCCNCC(=O)O; Nphe = O=C(O)CNCc1ccccc1; Octanoyl = CCCCCCCC(=O)*; Dab = NCC[C@H](N)C(=O)O; Pentanoyl = CCCCC(=O)*; Nleu = CC(C)CNCC(=O)O; NPrGly = CCCNCC(=O)O; Nlys = NCCCCNCC(=O)O

Assays:
[1] = system: E. coli W3110; assay type: cell-based, Escherichia coli; details: W3110, pH 8.5
Method: (§1) Minimal Inhibitory Concentration (MIC)
(§2) Antimicrobial activity was assayed for all the peptide-peptoids against P. aeruginosa PAO1, K. pneumoniae NCTC418, E. coli W3110, A. baumannii ATCC 19606, methicillin-resistant S. aureus COL (MRSA) and for selected peptides on P. aeruginosa PA14, as well as the clinical isolates ZEM-1A and ZEM9A, K. pneumoniae OXA-48, Enterobacter cloacae, Stenotrophomonas maltophilia and Staphylococus epidermidis. To determine the Minimal Inhibitory Concentration (MIC), Broth Microdilution method was used. A colony of bacteria was picked and grown in LB medium overnight at 37 °C. The next day, the culture was then regrown in LB medium to log phase (OD600 = 0.6 to 0.8), which lasted approximately 4 hours, and diluted to an OD600 of 0.022 in the desired medium (full MH or 12.5% MH).
(§3) The compounds were prepared as stock solutions of 2 mg/mL in sterilized MilliQ deionized water and then diluted in the desired media (full MH or 12.5% MH) to reach the first concentration tested (32 μg/mL). The compounds were added to the first well of a 96-well sterile, round bottom microtiter plates in polystyrene (TPP®, untreated) and diluted serially by ½ in the desired media (full MH or 12.5% MH), to a final volume of 150 µL/well. To each well was finally added 4 µL of the diluted bacterial suspension (see above), corresponding to approximately 5×10^5 CFU. For each test, two columns of the plate were kept for sterility control (medium only), growth control (medium with bacterial inoculum, no compound). The positive control, Polymyxin B (starting with a concentration of 16 µg/mL) in MH medium with bacterial inoculums, was introduced in the two first lines of the plate. The plates were incubated at 37 °C for ca. 18 hours under static conditions. 15 µL of 3-(4,5-dimethylthiazol-2-yl)-2,5-diphenyltetrazolium bromide (MTT)[7] (1 mg/mL in sterilized MilliQ deionized water) were added to each well and the plates were incubated for 20-30 minutes at room temperature. The […]
(§4) minimal inhibitory concentration (MIC) was defined as the lowest concentration of the compound that inhibits the visible growth of the tested bacteria (yellow) with the unaided eye.
(§5) Minimal Hemolytic Concentration (MHC) […]
(§6) 11. Minimal inhibitory in presence of salt
The same procedure as for the antibacterial activity measurements by minimal inhibitory concentration assay (MIC) was applied. The media, 12.5% Mueller-Hinton broth was this time supplemented with different salt concentrations (0, 100, 200 300 mM NaCl). […]
(§7) All data, in μg/mL, measured against P. aeruginosa PAO1, with or without addition of salt (NaCl). The values were measured in dilute medium (12.5% MH) and at slightly basic pH (pH = 8.5), after incubation for 16-20 h at 37 °C. Values represent two different duplicate MIC determinations.

[2] = system: P. aeruginosa PAO1; assay type: cell-based, Pseudomonas aeruginosa; details: PAO1, pH 8.5
Method: as §1, §2, §3, §4, §5, §6
The same procedure as for the antibacterial activity measurements by minimal inhibitory concentration assay (MIC) was applied. The media, 12.5% Mueller-Hinton broth was this time supplemented with different salt concentrations (0, 100, 200 300 mM NaCl). The MIC activities were then determined against Pseudomonas aeruginosa PAO1 and Escherichia coli […]
Table S6. Minimal inhibitory concentration (MIC) on P. aeruginosa PAO1 as function of salt […]
as §7

| MIC on E. coli, 0 mM NaCl [1] [µg/mL] | MIC on E. coli, 100 mM NaCl [1] [µg/mL] | MIC on E. coli, 200 mM NaCl [1] [µg/mL] | MIC on E. coli, 300 mM NaCl [1] [µg/mL] | MIC on P. aeruginosa, 0 mM NaCl [2] [µg/mL] | MIC on P. aeruginosa, 100 mM NaCl [2] [µg/mL] | MIC on P. aeruginosa, 200 mM NaCl [2] [µg/mL] | MIC on P. aeruginosa, 300 mM NaCl [2] [µg/mL] | Compound |
| --- | --- | --- | --- | --- | --- | --- | --- | --- |
| 0.5 (≈ 0.448 µM) | 32 (≈ 28.7 µM) | > 64 | > 64 | 4 (≈ 3.59 µM) | > 64 | > 64 | > 64 | CCCCCCCC(=O)N(CC(=O)N(CCN)CC(=O)N[C@@H](CCC(N)=O)C(=O)N[C@H]1CCNC(=O)[C@H](CCCCN)NC(=O)[C@H](CCCCN)NC(=O)CN(CCCCN)C(=O)[C@H](CCCCN)NC1=O)Cc1ccccn1 [EB16] (Octanoyl-[X1][Gly(N-2-aminoethyl)]Q[Dab]K[Nlys]KK; lactam 4-C) |
| 1 (≈ 0.769 µM) | 16 (≈ 12.3 µM) | > 64 | > 64 | 4 (≈ 3.08 µM) | > 64 | > 64 | > 64 | CCCCCCN(CC(=O)N[C@H]1CCNC(=O)[C@H](CCCCN)NC(=O)CN(CCN)C(=O)CN(CCN)C(=O)[C@H](CCCCN)NC(=O)[C@H](CC(N)=O)NC(=O)[C@H](CCCCN)NC1=O)C(=O)[C@H](CCCCN)NC(=O)CN(Cc1ccccc1)C(=O)CCCC [EB22] (Pentanoyl-[Nphe]K[NHexGly][Dab]KNK[Gly(N-2-aminoethyl)][Gly(N-2-aminoethyl)]K; lactam 4-C) |
| 2 (≈ 1.63 µM) | > 64 | > 64 | > 64 | 16 (≈ 13.1 µM) | > 64 | > 64 | > 64 | CCCCCCC(=O)N(CC(=O)N(CCCN)CC(=O)N(CCN)CC(=O)N[C@H]1CCNC(=O)[C@H](CCCCN)NC(=O)CN(C2CCCCC2)C(=O)CN(CCN)C(=O)[C@H](CCC(N)=O)NC(=O)[C@H](CCCNC(=N)N)NC1=O)Cc1ccccc1 [EB23] (Heptanoyl-[Nphe][Gly(N(CH2)3NH2)][Gly(N-2-aminoethyl)][Dab]RQ[Gly(N-2-aminoethyl)][Gly(N-cHex)]K; lactam 4-C) |
| 4 (≈ 3.38 µM) | > 64 | > 64 | > 64 | 32 (≈ 27.1 µM) | > 64 | > 64 | > 64 | NCCCC[C@@H]1NC(=O)CN(CCO)C(=O)[C@@H]2CCCN2C(=O)CN(CCCN)C(=O)[C@@H](NC(=O)[C@H](CC(N)=O)NC(=O)[C@H](CCCCN)NC(=O)[C@H](CCCCN)NC(=O)CN(Cc2ccccc2)C(=O)CCC2CCCC2)CCNC1=O [EB32] ({Propanoyl(3-cPent)}-[Nphe]KKN[Dab][Gly(N(CH2)3NH2)]P[Gly(N-CH2CH2OH)]K; lactam 5-C) |

The next lines start with the compound.

| Compound | MIC on E. coli, 0 mM NaCl [1] [µg/mL] | MIC on E. coli, 100 mM NaCl [1] [µg/mL] | MIC on E. coli, 200 mM NaCl [1] [µg/mL] | MIC on E. coli, 300 mM NaCl [1] [µg/mL] | MIC on P. aeruginosa, 0 mM NaCl [2] [µg/mL] | MIC on P. aeruginosa, 100 mM NaCl [2] [µg/mL] | MIC on P. aeruginosa, 200 mM NaCl [2] [µg/mL] | MIC on P. aeruginosa, 300 mM NaCl [2] [µg/mL] |
| --- | --- | --- | --- | --- | --- | --- | --- | --- |
| CC(C)C[C@H](NC(=O)CN(CC(C)C)C(=O)[C@H](CC(C)C)NC(=O)CN(CCCCN)C(=O)[C@H](CC(C)C)NC(=O)CN(CC(C)C)C(=O)[C@H](CCCCN)NC(=O)CN(CC(C)C)C(=O)[C@H](CC(C)C)NC(=O)CN(CCCCN)C(=O)[C@@H](N)CCCCN)C(N)=O [EB9, reference compound] (H-K[Nlys]L[Nleu]K[Nleu]L[Nlys]L[Nleu]L-NH2) | 2 (≈ 1.51 µM) | 16 (≈ 12.1 µM) | 64 (≈ 48.4 µM) | > 64 | 2 (≈ 1.51 µM) | 32 (≈ 24.2 µM) | > 64 | > 64 |
| CCCCCCCC(=O)N(CCN)CC(=O)N[C@@H](Cc1ccc(O)cc1)C(=O)N[C@@H](CCCCN)C(=O)N[C@H]1CCNC(=O)[C@H](CCCCN)NC(=O)CN(CCN)C(=O)[C@H](CCCNC(=N)N)NC(=O)[C@H](CCCCN)NC1=O [EB14] (Octanoyl-[Gly(N-2-aminoethyl)]YK[Dab]KR[Gly(N-2-aminoethyl)]K; lactam 4-C) | 1 (≈ 0.885 µM) | 16 (≈ 14.2 µM) | 64 (≈ 56.6 µM) | > 64 | 4 (≈ 3.54 µM) | > 64 | > 64 | > 64 |
| CC(C)[C@@H]1NC(=O)[C@H](CCCCN)NC(=O)CN(CCN)C(=O)[C@H](CC(N)=O)NC(=O)[C@@H](NC(=O)CN(CCN)C(=O)[C@H](CCCCN)NC(=O)CN(CCc2ccccc2)C(=O)CC2CCCC2)CCNC(=O)[C@H](CCCCN)NC1=O [EB20] (Cyclopentylacetyl-[Gly(NCH2CH2Ph)]K[Gly(N-2-aminoethyl)][Dab]N[Gly(N-2-aminoethyl)]KVK; lactam 4-C; N-terminus assumed) | 1 (≈ 0.855 µM) | 64 (≈ 54.7 µM) | > 64 | > 64 | 16 (≈ 13.7 µM) | > 64 | > 64 | > 64 |
| CCCN1CC(=O)N[C@@H](CC(N)=O)C(=O)N[C@@H](CCCCN)C(=O)N(CCCN)CC(=O)N[C@@H](CCCCN)C(=O)NCC[C@H](NC(=O)[C@H](CCCNC(=N)N)NC(=O)CNC(=O)CN(CCc2ccccc2)C(=O)CCC(C)C)C1=O [EB26] ({Pentanoyl(4-Me)}-[Gly(NCH2CH2Ph)]GR[Dab][NPrGly]NK[Gly(N(CH2)3NH2)]K; lactam 4-C) | 4 (≈ 3.46 µM) | 16 (≈ 13.8 µM) | > 64 | > 64 | 16 (≈ 13.8 µM) | > 64 | > 64 | > 64 |
| CCCCCCCC(=O)N(CC(=O)N(CCCN)CC(=O)N[C@@H](CCC(N)=O)C(=O)N[C@H]1CCNC(=O)[C@H](CCCCN)NC(=O)[C@H](CCCCN)NC(=O)[C@H](CCC(N)=O)NC(=O)CN(CCCCN)C1=O)Cc1cccnc1 [EB34] (Octanoyl-[NGly(CH2(3-pyridyl))][Gly(N(CH2)3NH2)]Q[Dab][Nlys]QKK; lactam 4-C) | 8 (≈ 7.08 µM) | > 64 | > 64 | > 64 | 32 (≈ 28.3 µM) | > 64 | > 64 | > 64 |
